# Legend:
# mouse splenocytes = test: Cytokine release (ELISA); assay type: cell-based; settings: 48 hr, 10 μg/mL LPS-RS
# Procedure: (§1) This example evaluates the ability of Compound 10 to induce cytokine release in human PBMCs, cyno PBMCs and mouse splenocytes. Compound 1 and resiquimod:
# (§2) Human and cyno PBMCs, mouse splenocytes were isolated as described in previous example. The day of the assay, 300 k of PBMC or splenocytes in 50 μL of culture medium were seeded in 96-well cell culture plates. 50 μl of the test articles (formulated at 2× of starting concentration) were then added into the well. The cell mixtures were co-cultured in the presence of test articles and 10 μg/mL LPS-RS for 24 hr (human PBMCs) or 48 hr (cyno PBMCs and mouse splenocytes). Cytokines released were measured by ELISA using cell culture medium.
# human PBMCs [1] = test: Cytokine release (ELISA); assay type: cell-based; settings: 24 hr, 10 μg/mL LPS-RS
# Procedure: as §1, §2
# cyno PBMCs = test: Cytokine release (ELISA); assay type: cell-based, cynomolgus monkey; settings: 48 hr, 10 μg/mL LPS-RS
# Procedure: as §1, §2
# human PBMCs [2] = test: Immune cell activation (CD86 expression, flow cytometry); assay type: cell-based; settings: 48 hr, 10 μg/ml LPS-RS
# Excerpt: This example evaluates the ability of Compound 10 to stimulate the activation of different immune cells populations (monocyte, B cell, and DCs), in human PBMCs (Peripheral blood mononuclear cells), cyno PBMCs and mouse splenocytes.
# Peripheral blood mononuclear cells (PBMCs) were isolated from fresh collected blood from two healthy human donors and two cynomolgus monkey donors using Leukosep tube and Nycoprep 1.077 buffer according to the manufacture's recommendation. Mouse splenocytes were isolated from C57/BL6 mouse spleens by macerating and straining over a 70 μm cell strainer. Isolated PBMCs or splenocytes were then frozen down using frozen medium. On the day of the assay, PBMCs or splenocytes were thawed and cultured in PBMC culture medium (RPMI supplemented with 10% heat-inactivated fetal bovine serum from Hyclone, 1% Penicillin/Streptomycin and 2 mmol/L-glutamax). 300 k of PBMC or splenocytes in 50 μl of culture medium were seeded in 96-well cell culture plates. 50 μl of the test articles (formulated at 2× of starting concentration) were then added into the well. The cell mixtures were co-cultured in the presence of test articles and 10 μg/ml LPS-RS for 48 hr. The cells were collected by Accutase and then stained with antibodies to different cell population markers and activation markers. Cells were washed, fixed with 2% PFA overnight, and read on the Attune N×T cytometer (Thermo Fisher). Monocyte activation was indicated as increase of CD86 expression on CD14+ cells. B cell activation was indicated as increase of CD86 expression on CD14−/Lin+/HLA-DR+ cells. Dendritic cells (DC) activation was indicated as increase of CD86 expression on CD14−/Lin−/HLA-DR+/CD123+ cells.
# [3] = Body weight / tolerability in MC38-hFolRα tumor-bearing mice; assay type: in vivo, mouse
# Procedure: (§3) Female C57BL/6 mice at 9-10 weeks of age were anesthetized with isoflurane and implanted subcutaneously into the right hind flank with 1×10^6 MC38-hFolRα (murine colon adenocarcinoma cells engineered to express hFolRα). Randomization and start of treatment was initiated when the average tumor size was approximately 150 mm^3 (designated as Day 0 post-treatment). Animals received intratumoral (IT) injections of Compound 2 on Day 0 and Day 4 (q4d×2). Compound 2 was dissolved in DMSO and dosing solutions were formulated in PBS. Body weight and tumor size were monitored 3×/week. The primary study endpoint was reached when the mean tumor size of the vehicle control group was >1,200 mm^3.
# MC38-hFolRα tumors = test: Anti-tumor activity in mice bearing established MC38-hFolRα tumors; assay type: in vivo, mouse; settings: Day 0 and 4; for tumor growth inhibition (TGI): compared to vehicle control on day 10, p<0.0001
# Excerpt: This example evaluates the response of MC38-hFolRα tumors to treatment with Compound 2, a TLR 7 agonist.
# as §3
Structure (SMILES),IL-6 release (mouse splenocytes; FIG. 6A),MCP-1 release (mouse splenocytes; FIG. 6B),TNFa release (mouse splenocytes; FIG. 6C),IP-10 release (mouse splenocytes; FIG. 6D),IL-6 release (human PBMCs [1]; FIG. 4A),MCP-1 release (human PBMCs [1]; FIG. 4B),IL1Ra release (human PBMCs [1]; FIG. 4C),IL-6 release (cyno PBMCs; FIG. 5A),MCP-1 release (cyno PBMCs; FIG. 5B),activation of monocytes (human PBMCs [2]; FIG. 1A),activation of B cells (human PBMCs [2]; FIG. 1B),activation of cDCs (human PBMCs [2]; FIG. 1C),activation of pDCs (human PBMCs [2]; FIG. 1D),"tolerability ([3]; 0.1-2 mg/kg intratumoral, Day 0 and 4)","dose-related minimal body weight loss ([3]; FIG. 7A legend, mice bearing MC38-hFolRα tumors)","body weight loss ([3]; doses >0.5 mg/kg intratumoral, Day 0 and 4, recovery by approximately Day 7, FIG. 7A)",tumor growth inhibition (TGI) (MC38-hFolRα tumors; 0.1 mg/kg intratumoral),tumor growth inhibition (TGI) (MC38-hFolRα tumors; 0.5 mg/kg intratumoral),tumor growth inhibition (TGI) (MC38-hFolRα tumors; 2 mg/kg intratumoral),MC38-hFolRα tumor growth delay (MC38-hFolRα tumors; 0.1-2 mg/kg intratumoral)
"CCCCCNc1nc(N)nc2ccn(Cc3ccc(CN4CC5(CNCCO5)C4)cc3OC)c12 [Compound 10, 5-[[2-methoxy-4-(5-oxa-2,8-diazaspiro[3.5]nonan-2-ylmethyl)phenyl]methyl]-N4-pentyl-pyrrolo[3,2-d]pyrimidine-2,4-diamine]",strong,strong,strong,strong,strong,strong,strong,strong,strong,very potent,very potent,very potent,very potent,,,,,,,
"CCCCCNc1nc(N)nc2ccn(Cc3ccc(CN4CC(NC)C4)cc3OC)c12 [Compound 2, 5-(2-methoxy-4-((3-(methylamino)azetidin-1-yl)methyl)benzyl)-N4-pentyl-5H-pyrrolo[3,2-d]pyrimidine-2,4-diamine]",,,,,,,,,,,,,,well tolerated,< 10 % of predose,approximately 5%,55%,61%,80%,significantly delayed

# — patent publication US12534465B2, “5H-pyrrolo[3,2-d]pyrimidine-2,4-diamino compounds and antibody conjugates thereof” (SUTRO BIOPHARMA, INC., priority 2019, dated 2026)
